The numbers were not newly measured in publication PMC5589927, “Visualization of ligand-induced dopamine D2S and D2L receptor internalization by TIRF microscopy” (Scientific Reports, 2017), which cites them from elsewhere.

SMILES strings stand for the structures.

In data set [1] the test system is D2S receptors. To be noted: stably transfected CHO cells, ref 46 (Itokawa et al.).
For data set [2], the system named is D2L receptors. To be noted: stably transfected CHO cells, ref 46 (Itokawa et al.).

For the compound `NCCc1ccc(O)c(O)c1` [dopamine], the “surface expressed D2S receptors unavailable for [3H]sulpiride (internalization)” value in data set [1] (after incubation with agonist) was “about 44%”. In data set [1], the “half-life of decrease D2S” value is recorded as 19 min. Further, the “internalization of D2L” value in data set [2] (after incubation with agonist) is given as 22%. In addition, the “half-life of decrease D2L” value in data set [2] is 33 min.
